According to US6677460B1, “Aromatic carboxylic acid bicyclic sulfur compounds” (Idemitsu Kosan Company, Limited, priority 1993, dated 2004):

Experiments:
barnyard grass [1] = assay: Upland soil treatment test (5); type: in vivo; details: dosage 100 g a.i./hectare, 20th day after treatment; also: ranges in brackets are in %
Method: (§1) 90 Parts by weight of the above carrier and 10 parts by weight of each of Compounds obtained in the above Preparation Examples were uniformly pulverized and mixed to obtain herbicides. Further, for Herbicide Comparative Examples, comparative herbicides were prepared by uniformly pulverizing and mixing 90 parts by weight of the above carrier and 10 parts by weight of each of the following Compounds x, y, A, B and C.
(§2) (5) Biological Test (Upland Soil Treatment Test, Herbicide Examples 10-26 and Comparative Example 9)
(§3) Seeds of weeds such as large crabgrass, barnyard grass, green foxtail, cocklebur, velvetleaf and slender amaranth and seeds of corn, wheat and barley were sown in 1/5,000-are Wagner pots filled with upland soil, and covered with upland soil. Then, a predetermined amount of the herbicide prepared in the above (1) was suspended in water and uniformly sprayed onto the soil surface. Thereafter, the plants were grown in the greenhouse, and on 20th day after the treatment, the herbicide was evaluated for herbicidal efficacy.
(§4) The dosage of each herbicide is indicated as an amount of the active ingredient per hectare. Further, air-dried weight were measured, and herbicidal efficacy and the pytotoxicity to corn are shown on the basis of the ratings described below.

cocklebur [2] = assay: Upland soil treatment test (5); type: in vivo; details: dosage 100 g a.i./hectare, 20th day after treatment; also: ranges in brackets are in %
Method: as §1, §2, §3, §4

slender amaranth [3] = assay: Upland soil treatment test (5); type: in vivo; details: dosage 100 g a.i./hectare, 20th day after treatment; also: ranges in brackets are in %
Method: as §1, §2, §3, §4

velvetleaf [4] = assay: Upland soil treatment test (5); type: in vivo; details: dosage 100 g a.i./hectare, 20th day after treatment; also: ranges in brackets are in %
Method: as §1, §2, §3, §4

large crabgrass [5] = assay: Upland soil treatment test (5); type: in vivo; details: dosage 100 g a.i./hectare, 20th day after treatment; also: ranges in brackets are in %
Method: as §1, §2, §3, §4

green foxtail [6] = assay: Upland soil treatment test (5); type: in vivo; details: dosage 100 g a.i./hectare, 20th day after treatment; also: ranges in brackets are in %
Method: as §1, §2, §3, §4

barnyard grass [7] = assay: Upland soil treatment test (3); type: in vivo; details: 20th day after treatment; also: ranges in brackets are in %
Method: as §1
(§5) (3) Biological Test (Upland Soil Treatment Test, Herbicide Examples 3 and 4 and Herbicide Comparative Examples 3 and 4)
as §3, with “barnyardgrass,” for “barnyard grass,”
(§6) The herbicidal efficacy and the phytotoxicity to crops are shown on the basis of the ratings described in (2) Foliar treatment test.

cocklebur [8] = assay: Upland soil treatment test (3); type: in vivo; details: 20th day after treatment; also: ranges in brackets are in %
Method: as §1, §5
as §3, with “barnyardgrass,” for “barnyard grass,”
as §6

slender amaranth [9] = assay: Upland soil treatment test (3); type: in vivo; details: 20th day after treatment; also: ranges in brackets are in %
Method: as §1, §5
as §3, with “barnyardgrass,” for “barnyard grass,”
as §6

velvetleaf [10] = assay: Upland soil treatment test (3); type: in vivo; details: 20th day after treatment; also: ranges in brackets are in %
Method: as §1, §5
as §3, with “barnyardgrass,” for “barnyard grass,”
as §6

large crabgrass [11] = assay: Upland soil treatment test (3); type: in vivo; details: 20th day after treatment; also: ranges in brackets are in %
Method: as §1, §5
as §3, with “barnyardgrass,” for “barnyard grass,”
as §6

green foxtail [12] = assay: Upland soil treatment test (3); type: in vivo; details: 20th day after treatment; also: ranges in brackets are in %
Method: as §1, §5
as §3, with “barnyardgrass,” for “barnyard grass,”
as §6

barnyard grass [13] = assay: Foliar treatment test (2); type: in vivo; details: 20th day after treatment; also: ranges in brackets are in %
Method: as §1
(§7) (2) Biological Test (Foliar Treatment Test, Herbicide Examples 1 and 2 and Herbicide Comparative Examples 1 and 2)
as §3, with “The seeds were grown in a greenhouse, and at the stage of 1˜2 leaves of these plants,” for “Then,”, “leaf and stalk portions at a rate of 200 liter/10 are.” for “the soil surface.”
(§8) The herbicidal efficacy and phytotoxcity to crops were shown on the basis of the following ratings.
(§9) The ratio of remaining plant weight to non-treated was determined on the basis of the ratio of remaining plant weight to non-treated=(remaining plant weight in treated plot/remaining plant weight in non-treated plot)×100. This is also applicable to biological tests hereinafter.

cocklebur [14] = assay: Foliar treatment test (2); type: in vivo; details: 20th day after treatment; also: ranges in brackets are in %
Method: as §1, §7
as §3, with “The seeds were grown in a greenhouse, and at the stage of 1˜2 leaves of these plants,” for “Then,”, “leaf and stalk portions at a rate of 200 liter/10 are.” for “the soil surface.”
as §8, §9

slender amaranth [15] = assay: Foliar treatment test (2); type: in vivo; details: 20th day after treatment; also: ranges in brackets are in %
Method: as §1, §7
as §3, with “The seeds were grown in a greenhouse, and at the stage of 1˜2 leaves of these plants,” for “Then,”, “leaf and stalk portions at a rate of 200 liter/10 are.” for “the soil surface.”
as §8, §9

velvetleaf [16] = assay: Foliar treatment test (2); type: in vivo; details: 20th day after treatment; also: ranges in brackets are in %
Method: as §1, §7
as §3, with “The seeds were grown in a greenhouse, and at the stage of 1˜2 leaves of these plants,” for “Then,”, “leaf and stalk portions at a rate of 200 liter/10 are.” for “the soil surface.”
as §8, §9

large crabgrass [17] = assay: Foliar treatment test (2); type: in vivo; details: 20th day after treatment; also: ranges in brackets are in %
Method: as §1, §7
as §3, with “The seeds were grown in a greenhouse, and at the stage of 1˜2 leaves of these plants,” for “Then,”, “leaf and stalk portions at a rate of 200 liter/10 are.” for “the soil surface.”
as §8, §9

green foxtail [18] = assay: Foliar treatment test (2); type: in vivo; details: 20th day after treatment; also: ranges in brackets are in %
Method: as §1, §7
as §3, with “The seeds were grown in a greenhouse, and at the stage of 1˜2 leaves of these plants,” for “Then,”, “leaf and stalk portions at a rate of 200 liter/10 are.” for “the soil surface.”
as §8, §9

corn = assay: Upland soil treatment test (5), phytotoxicity; type: in vivo; details: dosage 100 g a.i./hectare, 20th day after treatment
Method: as §1, §2, §3, §4

cocklebur [19] = assay: Foliar treatment test (7); type: in vivo; details: 300 g a.i./hectare, 20th day after spraying; also: ranges in brackets are in %
Method: as §1
(§10) (7) Biological Test (Foliar Treatment Test, Herbicide Examples 43-47 and Comparative Examples 11 and 12)
(§11) Seeds of weeds such as large crabgrass, barnyardgrass, green foxtail, cocklebur, velvetleaf and slender amaranth and seeds of corn, wheat and barley were sown in 1/5,000-are Wagner pots filled with upland soil, and covered with upland soil. The seeds were grown in a greenhouse, and at the stage of 1 to 2 leaves of these plants, a predetermined amount of the herbicide prepared in the above (1) was suspended in water and uniformly sprayed onto leaf and stalk portions at a rate of 200 liter/10 ares. Thereafter, the plants were grown in the greenhouse, and on the 20th day after the spraying treatment, the herbicide was evaluated for herbicidal efficacy.
as §8, §9

slender amaranth [20] = assay: Foliar treatment test (7); type: in vivo; details: 300 g a.i./hectare, 20th day after spraying; also: ranges in brackets are in %
Method: as §1, §10, §11, §8, §9

velvetleaf [21] = assay: Foliar treatment test (7); type: in vivo; details: 300 g a.i./hectare, 20th day after spraying; also: ranges in brackets are in %
Method: as §1, §10, §11, §8, §9

barnyardgrass = assay: Foliar treatment test (7); type: in vivo; details: 300 g a.i./hectare, 20th day after spraying; also: ranges in brackets are in %
Method: as §1, §10, §11, §8, §9

large crabgrass [22] = assay: Foliar treatment test (7); type: in vivo; details: 300 g a.i./hectare, 20th day after spraying; also: ranges in brackets are in %
Method: as §1, §10, §11, §8, §9

green foxtail [23] = assay: Foliar treatment test (7); type: in vivo; details: 300 g a.i./hectare, 20th day after spraying; also: ranges in brackets are in %
Method: as §1, §10, §11, §8, §9

barnyard grass [24] = assay: Upland soil treatment test (8); type: in vivo; details: 300 g a.i./hectare, 20th day after spraying; also: ranges in brackets are in %
Method: as §1
(§12) (8) Biological Test (Upland Soil Treatment Test, Herbicide Examples 48-52 and Herbicide Comparative Examples 13 and 14)
(§13) Seeds of weeds such as large crabgrass, barnyard brass, green foxtail, cocklebur, velvetleaf and slender amarnth and seeds of corn, wheat and barley were sown in 1/5,000-are Wagner pots filled with upland soil, and covert with upland soil. Then, a predetermined amount of the herbicide prepared in the above (1) was suspended in water and uniformly sprayed onto the soil surface. Thereafter, the plant were grown in the greenhouse, and on the 20th day after the spraying treatment, the herbicide was evaluated for herbicidal efficacy.
as §6

cocklebur [25] = assay: Upland soil treatment test (8); type: in vivo; details: 300 g a.i./hectare, 20th day after spraying; also: ranges in brackets are in %
Method: as §1, §12, §13, §6

slender amaranth [26] = assay: Upland soil treatment test (8); type: in vivo; details: 300 g a.i./hectare, 20th day after spraying; also: ranges in brackets are in %
Method: as §1, §12, §13, §6

velvetleaf [27] = assay: Upland soil treatment test (8); type: in vivo; details: 300 g a.i./hectare, 20th day after spraying; also: ranges in brackets are in %
Method: as §1, §12, §13, §6

large crabgrass [28] = assay: Upland soil treatment test (8); type: in vivo; details: 300 g a.i./hectare, 20th day after spraying; also: ranges in brackets are in %
Method: as §1, §12, §13, §6

green foxtail [29] = assay: Upland soil treatment test (8); type: in vivo; details: 300 g a.i./hectare, 20th day after spraying; also: ranges in brackets are in %
Method: as §1, §12, §13, §6

CCn1ncc(C(=O)c2cc(C)c3c(c2C)C(C)(C)CCS3(=O)=O)c1O [Compound 1, 4,4,5,8-tetramethyl-6-(1-ethyl-5-hydroxypyrazol-4-yl)carbonyl-thiochroman-1,1-dioxide]
0 (100): Phyto-toxicity to corn (corn)
208.8 to 209.3 °C: melting point
5 (0): Herbicidal Efficacy barnyard grass (barnyard grass [1]) | Herbicidal Efficacy cocklebur (cocklebur [2]) | Herbicidal Efficacy slender amaranth (slender amaranth [3]) | Herbicidal Efficacy velvetleaf (velvetleaf [4]) | Herbicidal Efficacy large crabgrass (large crabgrass [5]) | Herbicidal Efficacy green foxtail (green foxtail [6]) | Herbicidal Efficacy barnyard grass (barnyard grass [7]; dosage 3 g a.i./are) | Herbicidal Efficacy barnyard grass (barnyard grass [7]; dosage 10 g a.i./are) | Herbicidal Efficacy cocklebur (cocklebur [8]; dosage 3 g a.i./are) | Herbicidal Efficacy cocklebur (cocklebur [8]; dosage 10 g a.i./are) | Herbicidal Efficacy slender amaranth (slender amaranth [9]; dosage 3 g a.i./are) | Herbicidal Efficacy slender amaranth (slender amaranth [9]; dosage 10 g a.i./are) | Herbicidal Efficacy velvetleaf (velvetleaf [10]; dosage 3 g a.i./are) | Herbicidal Efficacy velvetleaf (velvetleaf [10]; dosage 10 g a.i./are) | Herbicidal Efficacy large crabgrass (large crabgrass [11]; dosage 3 g a.i./are) | Herbicidal Efficacy large crabgrass (large crabgrass [11]; dosage 10 g a.i./are) | Herbicidal Efficacy green foxtail (green foxtail [12]; dosage 3 g a.i./are) | Herbicidal Efficacy green foxtail (green foxtail [12]; dosage 10 g a.i./are) | Herbicidal Efficacy barnyard grass (barnyard grass [13]; dosage 3 g a.i./are) | Herbicidal Efficacy barnyard grass (barnyard grass [13]; dosage 10 g a.i./are) | Herbicidal Efficacy cocklebur (cocklebur [14]; dosage 3 g a.i./are) | Herbicidal Efficacy cocklebur (cocklebur [14]; dosage 10 g a.i./are) | Herbicidal Efficacy slender amaranth (slender amaranth [15]; dosage 3 g a.i./are) | Herbicidal Efficacy slender amaranth (slender amaranth [15]; dosage 10 g a.i./are) | Herbicidal Efficacy velvetleaf (velvetleaf [16]; dosage 3 g a.i./are) | Herbicidal Efficacy velvetleaf (velvetleaf [16]; dosage 10 g a.i./are) | Herbicidal Efficacy large crabgrass (large crabgrass [17]; dosage 3 g a.i./are) | Herbicidal Efficacy large crabgrass (large crabgrass [17]; dosage 10 g a.i./are) | Herbicidal Efficacy green foxtail (green foxtail [18]; dosage 3 g a.i./are) | Herbicidal Efficacy green foxtail (green foxtail [18]; dosage 10 g a.i./are)

CCn1ncc(C(=O)c2cc(C)c3c(c2C)C=CCS3)c1O [Compound 47-1, 5,8-dimethyl-6-(1-ethyl-5-hydroxypyrazol-4-yl)carbonyl-3,4-dehydrothiochroman]
5 (0): Herbicidal Efficacy cocklebur (cocklebur [19]) | Herbicidal Efficacy slender amaranth (slender amaranth [26])
4 (1-20): Herbicidal Efficacy velvetleaf (velvetleaf [21])
0 (81-100): Herbicidal Efficacy slender amaranth (slender amaranth [20]) | Herbicidal Efficacy barnyard grass (barnyardgrass) | Herbicidal Efficacy large crabgrass (large crabgrass [22]) | Herbicidal Efficacy green foxtail (green foxtail [23]) | Herbicidal Efficacy barnyard grass (barnyard grass [24]) | Herbicidal Efficacy cocklebur (cocklebur [25]) | Herbicidal Efficacy velvetleaf (velvetleaf [27]) | Herbicidal Efficacy large crabgrass (large crabgrass [28]) | Herbicidal Efficacy green foxtail (green foxtail [29])
